{"source": "patent US9512425B2", "about": "“Inhibiting migration of cancer cells” (Cornell University, priority 2012, dated 2016)", "format_in_all_cases": "cell-based, human", "key": {"[1]": {"tested_on": "MDA-MB-231 (MDA)", "assay": "Wound healing / transwell migration of MDA cells stably expressing miR-708", "conditions": "MDA cells stably expressing miR-708 (lentiviral) vs controls", "from_the_text": "To express miRNA-708 in cells, about 500 bp of pri-miRNA containing the mature miR-708 sequence 5′-[…]-3′ (SEQ ID NO: 2) was amplified and cloned into the pZEO lentiviral construct in fusion with a GFP reporter as described (Ryu et al., 2011). miRNA sponge was generated according to (Ebert et al., 2007). Briefly, the sponge contains twelve miR-708 binding sites, 5′-[…]-3′ (SEQ ID NO: 3) which is fused with GFP and driven by an EF1α promoter. In particular, miRNA-708 was designed and cloned into the Xho I/EcoR I site of the lentiviral vector. To express miRNA-708 inducibly in cells, a doxycycline inducible construct was generated. […]\nCells were plated in triplicate into 6-well plates (5×10^5 cell/well) and cultured in DMEM containing 10% FBS. […] Cell migration was photographed and measured under phase-contrast microscopy. To measure cell migration after depletion of intracellular calcium, a scratch was made and the wound healing was monitored for 48 hr in the presence of 20 μM of BAPTA-AM (Invitrogen). The percentage of wound healed area was measured as a ratio of occupied area to the total area using Image J program (NIH).\nFor transwell assays, 10,000 cells were plated in triplicate on 8 micron inserts in 24 well plates containing DMEM. […] After staining, images were obtained using a computerized Zeiss microscope (Axiovert 200M) and analyzed using Axiovision 4.6 software (Carl Zeiss Inc.)."}, "[2]": {"tested_on": "MDA cells", "assay": "Cell proliferation assay (EdU)", "conditions": "MDA cells transformed with miR-708 lentiviral expression system", "protocol": "For cell proliferation assays, 1×10^6 MDA cells were cultured separately in suspension in non-adhesive 6-well dishes (Corning Inc) for 2 days. EdU ([…]) was administrated to culture medium for 30 min to label proliferating cells. Cells were harvested, washed once with PBS, and fixed with 4% paraformaldehyde for 15 min at room temperature. Fixed cells were permeabilized and stained for EdU incorporation and DNA contains with the Click-iT® EdU Cell Proliferation Assay kit (Invitrogen Inc) according to the standard protocol. Flow analyses of cell phases were performed using an LSRII coupled with Diva software (BD Bioscience)."}, "[3]": {"tested_on": "p-FAK (S910)", "assay": "Western blot and immunostaining of p-FAK", "protocol": "Cells were homogenized in 1×RIPA lysis buffer (Millipore) containing protease inhibitors (Roche Applied Science) and 1× phosphatase inhibitor (Thermo Scientific). Samples were boiled in 1× NuPAGE LDS sampling buffer (Invitrogen), and loaded onto 4-20% gradient Tris-HCl gels (BioRad). Western blotting was performed using antibodies specific for NNAT (Cat#AB27266, Abcam), EPDR1 (Cat# SC81820, Santa Cruz), SSRP1 (Cat#SC56782, Santa Cruz), HOXB3 (Cat# SC17161, Santa Cruz), HNRNPK (Cat# SC28380, Santa Cruz), CNTFR, Phospho-p44/42 MAPK (Erk1/2, Cat #4370, Cell Signaling), p44/42 MAPK (Erk1/2, Cat #4695, Cell Signaling), VINCULIN (Cat#V9131, Sigma-Aldrich), and β-ACTIN (Sigma-Aldrich).\nFor immunofluorescence staining, cells were fixed overnight in paraformaldehyde before incubation with primary antibodies; mouse-monoclonal VINCULIN (Cat#V9131, Sigma-Aldrich, 1:400) and rabbit-polyclonal phosphorylated FAK (pS910, Cat #44596G, Invitrogen, 1:1000). Alexa Flour 568 or Alexa Fluor 647 anti-mouse IgG, and Alexa Fluor 647 anti-rabbit IgG (Invitrogen), were used for visualization. Following incubation with secondary antibodies the tissue sections were treated with Rhodamine Phalloidin (Cat# R415, Invitrogen). […] Images were analyzed using Axiovision 4.6 software (Carl Zeiss Inc.)."}, "[4]": {"tested_on": "cortical actin", "assay": "Immunostaining for vinculin and F-actin (phalloidin)", "conditions": "MDA-miR-708 cells", "protocol": "For immunofluorescence staining, cells were fixed overnight in paraformaldehyde before incubation with primary antibodies; mouse-monoclonal VINCULIN (Cat#V9131, Sigma-Aldrich, 1:400) and rabbit-polyclonal phosphorylated FAK (pS910, Cat #44596G, Invitrogen, 1:1000). Alexa Flour 568 or Alexa Fluor 647 anti-mouse IgG, and Alexa Fluor 647 anti-rabbit IgG (Invitrogen), were used for visualization. Following incubation with secondary antibodies the tissue sections were treated with Rhodamine Phalloidin (Cat# R415, Invitrogen). Fluorescent images were obtained using a computerized Zeiss fluorescent microscope (Axiovert 200M), fitted with an apotome and an HRM camera. Images were analyzed using Axiovision 4.6 software (Carl Zeiss Inc.)."}, "[5]": {"tested_on": "Nnat", "assay": "Nnat expression in MDA-MB-436 cells overexpressing miR-708", "conditions": "MDA-MB-436 cells expressing miR-708", "protocol": "Total RNA was extracted using the RNeasy kit (Qiagen) and converted to cDNA using Superscript II reverse transcriptase (Invitrogen). QPCR primers for Nnat were purchased from SABiosciences (Cat #PPT11378, SABiosciences), and quantitative PCR performed using iQ™ SYBER Green master mix (Biorad, Hercule, Calif.). Each sample was run in triplicate to minimize pipetting error. A standard protocol of initial denaturation at 95° C. for 3 min, 40 cycles of 95° C. for 20 sec, 60° C. for 30 sec, and 72° C. for 30 sec, followed by final extension at 72° C. for 5 min and melt curve analysis was applied on a Biorad CFX96 Real Time System (BioRad) coupled with Bio-Rad-CFX Manager software. The relative abundance of each transcript was compared with the control."}}, "data": [{"substance": "miR-708: microRNA, mature sequence 5'-AAGGAGCUUACAAUCUAGCUGGG-3' (SEQ ID NO: 2); expressed from lentiviral vector or used as synthetic precursor", "values": [{"measurement": "migration rates", "setting": "[1]", "result": "suppressed migration rates"}, {"measurement": "cell proliferation", "setting": "[2]", "result": "No significant change"}, {"measurement": "p-FAK levels following ATP-mediated Ca^2+ release", "setting": "[3]; Western blot, MDA-miR-708 vs MDA cells", "result": "increased in MDA and not in MDA-miR-708 cells"}, {"measurement": "p-FAK at vinculin+ focal adhesions", "setting": "[3]; immunostaining, MDA-miR-708 cells", "result": "devoid of p-FAK"}, {"measurement": "cortical actin phenotype", "setting": "[4]", "result": "thick bands of cortical actin rings"}, {"measurement": "Nnat levels", "setting": "[5]", "result": "decreased levels of Nnat"}]}]}
